Reference: paper PMC8396040, “Direct Synthesis of Polyaromatic Cyclophanes Containing Bis-Methylene-Interrupted Z-Double Bonds and Study of Their Antitumor Activity In Vitro” (International Journal of Molecular Sciences, 2021)
≈ marks a conversion by molar mass, not a printed value.

What was measured:
[1] = test system: Jurkat cells; assay: Cell cycle analysis (Guava Cell Cycle Reagent); type: cell-based; settings: IC50 concentrations (8a 0.15 µM, 8b 0.16 µM, 8c 0.13 µM), 24 h
Procedure: Cell cycle analysis was carried out following the known procedure. Guava Cell Cycle Reagent (Millipore, Burlington, MA, USA) was used. Samples were analyzed on a NovoCyteTM 2000 FlowCytometry System (ACEA, San Diego, CA, USA).

[2] = test system: HL-60; assay: Cytotoxicity, flow cytofluorimetry (Guava ViaCount / 7-AAD); type: cell-based; settings: Homo sapiens, mean ± SEM, at least 3 independent experiments
Procedure: (§1) The cytotoxicity of the prepared compounds was studied using Jurkat, K562, U937, and HL-60 suspension tumor cells; conditionally normal Hek293 cells; and normal fibroblasts. The IC50 values were determined by flow cytofluorimetry with the Guava ViaCount reagent kit (Millipore, Bedford, MA, USA).
(§2) Cells (Jurkat, K562, U937, HL-60, HEK293, and normal fibroblasts) were purchased from HPA Culture Collections (Salisbury, UK) and cultured according to standard mammalian tissue culture protocols and the sterile technique. All cell lines used in the study were tested and shown to be free of mycoplasma and other […] contamination. HEK293 and fibroblast cell lines were cultured as monolayers and maintained in Dulbecco’s modified Eagle’s medium (DMEM, Gibco BRL, Waltham, MA, USA) supplemented with 10% fetal bovine serum and 1% penicillin-streptomycin solution at 37 °C in a humidified incubator under a 5% CO2 atmosphere.
(§3) Cells were maintained in RPMI 1640 (Jurkat, K562, U937, HL60) (Gibco, Waltham, MA, USA) supplemented with 4 mM glutamine, 10% FBS (Sigma, Burlington, MA, USA), and 100 units/ml penicillin–streptomycin (Sigma, Burlington, MA, USA). All types of cells were grown in an atmosphere of 5% CO2 at 37 °C. The cells were subcultured at 2–3-day intervals. Adherent cells (HEK293 and normal fibroblasts) were suspended using trypsin/EDTA and counted after they reached 80% confluency. Cells were then seeded in 24-well plates at 5 × 10^4 cells per well and incubated overnight. Jurkat, K562, U937, and HL60 cells were subcultured at 2-day intervals with a seeding density of 1 × 10^5 cells per 24-well plates in RPMI with 10% FBS.
(§4) Viability (live/dead) assessment was performed by staining cells with 7-AAD (7-Aminoactinomycin D) (Biolegend, Fell, Germany). After treatment, cells were harvested, washed 1–2 times with phosphate-buffered saline (PBS), and centrifuged at 400× g for 5 min. Cell pellets were resuspended in […] of flow cytometry staining buffer (PBS without Ca^2+ and Mg^2+, 2.5% FBS) and stained with 5 μL of 7-AAD staining solution for 15 min at room temperature in the dark. Samples were acquired on a NovoCyteTM 2000 FlowCytometry System (ACEA) equipped with a 488 nm argon laser. Detection of 7-AAD emission was collected through a 675/30 nm filter in FL4 channel.

[3] = test system: Hek293; assay: as above; type: cell-based; settings: Homo sapiens, mean ± SEM, at least 3 independent experiments
Procedure: as §1, §2, §3, §4

[4] = test system: Jurkat; assay: as above; type: cell-based; settings: Homo sapiens, mean ± SEM, at least 3 independent experiments
Procedure: as §1, §2, §3, §4

[5] = test system: K562; assay: as above; type: cell-based; settings: Homo sapiens, mean ± SEM, at least 3 independent experiments
Procedure: as §1, §2, §3, §4

[6] = test system: normal fibroblasts; assay: as above; type: cell-based; settings: Fibroblast; mean ± SEM, at least 3 independent experiments; read-out: Fibrobl. (IC50)
Procedure: as §1, §2, §3, §4

[7] = test system: U937; assay: as above; type: cell-based; settings: Homo sapiens, U-937; mean ± SEM, at least 3 independent experiments
Procedure: as §1, §2, §3, §4

[8] = test system: Jurkat cells; assay: Induction of apoptosis, Annexin V / 7AAD flow cytometry; type: cell-based; settings: 24 h; for apoptosis-inducing effect, dependence on dose: 0.1-0.3 µM
Procedure: We studied the new macrodiolides for the induction of apoptosis and for the effect on the cell cycle. For this purpose, we chose the Jurkat, K562, and U937 cell lines. Apoptosis was studied by flow cytofluorimetry using Annexin V and 7-aminoactinomycin D (7AAD) (Guava Nexin reagent (Millipore, Bedford, MA, USA)). After incubation, the cells were analyzed using a NovoCyte™ 2000 Flow Cytometry System (ACEA). Apoptotic cells are characterized by externalization of the phosphatidylserine (PS) phospholipid, which is normally located, in living cells, on the inner surface of the cell membrane. The phospholipid location on the outer membrane surface can be detected from early apoptosis up to complete cell degradation. […] The use of Annexin V in combination with 7AAD allows simultaneous discrimination between viable cells (V–/7AAD–), early apoptotic cells (V+/7AAD–), and late apoptotic or necrotic cells (V+/7AAD+).
Induction of apoptosis tests were carried out following the known procedure. Apoptosis was determined by flow cytometric analysis of Annexin V and 7-aminoactinomycin D staining. After treatment, cells during 24 h were harvested, washed 1–2 times with phosphate-buffered saline (PBS), and centrifuged at 400× g for 5 min. Cell pellets were resuspended in 200 μL of flow cytometry staining buffer (PBS without Ca^2+and Mg^2+, 2.5% FBS). Then, 200 μL of Guava Nexin reagent (Millipore, Bedford, MA, USA) were added to 5 × 10^5 cells in 200 μL, and the cells were incubated with the reagent for 20 min at room temperature in the dark. At the end of incubation, the cells were analyzed on a NovoCyteTM 2000 FlowCytometry System (ACEA, San Diego, CA, USA).

[9] = test system: Jurkat cells; assay: Mitochondrial damage, MitoSense Red / Annexin V-CF488A / 7-AAD (FlowCellect MitoDamage Kit); type: cell-based; settings: for percentage of Jurkat tumor cells with reduced Δψ: 4 h (Figure 4)
From the text: The changes in the mitochondrial membrane potential (ΔΨ) in Jurkat cells induced by treatment with compounds 8a, 8b, and 8c were detected using the MitoSense Red, a fluorescent dye, which is mainly accumulated in mitochondria and responds to changes in the membrane potential. The viable whole-body cells induce a high fluorescence level of MitoSense Red, whereas cells with dissipated mitochondrial membrane potential cause much lower fluorescence of MitoSense Red or no fluorescence. Annexin V and 7AAD are two dyes commonly used to detect apoptotic cells. […] Thus, using three different dyes, MitoSense Red, Annexin V (CF488A), and 7-AAD, we analyzed the dissipation of the mitochondrial membrane potential and the related apoptosis in Jurkat tumor cells in response to the action of synthesized macrodiolides (Figure 4).
Mitochondrial damage tests were carried out following the known procedure. Cytometric assay (Millipore’s FlowCellect™MitoDamage Kit, Merck, Burlington, MA, USA) that allowed multiparametric evaluation of three cell health markers: change in mitochondrial potential (early apoptosis and cellular stress), phosphatidylserine expression on the cell surface […], and membrane permeabilization (cell death), was used.

[10] = test system: HT-29 human colon cancer cells; design: method as in PMID 12530851, PMID 16551088; settings: HT-29 cell line; cited from earlier work

SMILES | Freq G1 (percentage of cells in G0/G1 phase) [1] | IC50 [2] | IC50 [3] | IC50 [4] | IC50 [5] | IC50 [6] | IC50 [7] | apoptosis-inducing effect, dependence on dose [8] | percentage of Jurkat tumor cells with reduced Δψ ([9]; 0.15 µM) | IC50 [10] | action on mitochondria (reduction of mitochondrial potential) compared with staurosporine [9] | Freq Sub-G1 (cells in the sub-G0-G1 range) [1] | An+,PI+ cells (late apoptosis) ([8]; 0.1 µM) | An+,PI+ cells (late apoptosis) ([8]; 0.3 µM) | PI+ cells (necrotic) ([8]; 0.3 µM) | percentage of apoptotic cells (early apoptosis and late apoptosis) ([9]; 0.15 µM, 4 h)
O=C1OCCCCCC/C=C\CC/C=C\CCCCCCOC(=O)c2ccccc2OCc2ccc(cc2)COc2ccccc21 [8c, (16Z,20Z)-2,6,9,28-tetraoxa-1,7(1,2),4(1,4)-tribenzenacyclononacosaphane-16,20-diene-8,29-dione] | 55.93% | 0.19 ± 0.01 µM | 1.21 ± 0.09 µM | 0.13 ± 0.01 µM | 0.34 ± 0.03 µM | 3.19 ± 0.28 µM | 0.27 ± 0.02 µM | dose dependent | 26.26% |  |  |  |  |  |  | 
Oc1cccc(C23C=C4CN(CCc5ccc(c(O)c5)-c5ccc(O)cc54)C2Cc2cccc(O)c23)c1 (centres unmarked) [Haouamine A] |  |  |  |  |  |  |  |  |  | 0.1 µg/mL (≈ 0.204 µM) |  |  |  |  |  | 
O=C1OCCCC/C=C\CC/C=C\CCCCOC(=O)c2ccccc2OCc2ccccc2COc2ccccc21 [7a, (11Z,15Z)-7,8,9,10,13,14,17,18,19,20,28,33-dodecahydro-5H,22H-tribenzo[c,g,k][1,5,10,14]tetraoxacyclooctacosine-5,22-dione] |  | 0.94 ± 0.08 µM | 3.86 ± 0.34 µM | 0.49 ± 0.04 µM | 0.76 ± 0.08 µM | 7.12 ± 0.59 µM | 0.56 ± 0.06 µM |  |  |  |  |  |  |  |  | 
O=C1OCCCCCC/C=C\CC/C=C\CCCCCCOC(=O)c2ccccc2OCc2ccccc2COc2ccccc21 [8a, (13Z,17Z)-7,8,9,10,11,12,15,16,19,20,21,22,23,24,32,37-hexadecahydro-5H,26H-tribenzo[c,g,k][1,5,10,14]tetraoxacyclodotriacontine-5,26-dione] | 63.04% | 0.22 ± 0.02 µM | 1.44 ± 0.11 µM | 0.15 ± 0.02 µM | 0.37 ± 0.02 µM | 3.37 ± 0.29 µM | 0.3 ± 0.02 µM | dose dependent | 19.36% |  | comparable with the action of staurosporine |  |  |  |  | 
O=C1OCCCCCC/C=C\CC/C=C\CCCCCCOC(=O)c2ccccc2OCc2cccc(c2)COc2ccccc21 [8b, (16Z,20Z)-2,6,9,28-tetraoxa-1,7(1,2),4(1,3)-tribenzenacyclononacosaphane-16,20-diene-8,29-dione] | 59.16% | 0.24 ± 0.02 µM | 1.68 ± 0.14 µM | 0.16 ± 0.01 µM | 0.39 ± 0.04 µM | 3.48 ± 0.32 µM | 0.31 ± 0.03 µM | dose dependent | 41.71% |  | comparable with the action of staurosporine | 4.13% | 64.36% | 58.0% | 26.49% | 58.15%
O=C1OCCC/C=C\CC/C=C\CCCOC(=O)c2ccccc2OCc2cccc(c2)COc2ccccc21 [6b, (13Z,17Z)-2,6,9,22-tetraoxa-1,7(1,2),4(1,3)-tribenzenacyclotricosaphane-13,17-diene-8,23-dione] |  | 0.44 ± 0.04 µM | 2.18 ± 0.21 µM | 0.48 ± 0.05 µM | 0.64 ± 0.06 µM | 5.09 ± 0.47 µM | 0.51 ± 0.05 µM |  |  |  |  |  |  |  |  | 
O=C1OCCC/C=C\CC/C=C\CCCOC(=O)c2ccccc2OCc2ccc(cc2)COc2ccccc21 [6c, (13Z,17Z)-2,6,9,22-tetraoxa-1,7(1,2),4(1,4)-tribenzenacyclotricosaphane-13,17-diene-8,23-dione] |  | 0.4 ± 0.03 µM | 1.76 ± 0.16 µM | 0.34 ± 0.03 µM | 0.58 ± 0.05 µM | 4.22 ± 0.39 µM | 0.46 ± 0.04 µM |  |  |  |  |  |  |  |  | 
O=C1OCCCC/C=C\CC/C=C\CCCCOC(=O)c2ccccc2OCc2cccc(c2)COc2ccccc21 [7b, (14Z,18Z)-2,6,9,24-tetraoxa-1,7(1,2),4(1,3)-tribenzenacyclopentacosaphane-14,18-diene-8,25-dione] |  | 0.97 ± 0.09 µM | 4.21 ± 0.39 µM | 0.94 ± 0.08 µM | 1.49 ± 0.11 µM | 7.69 ± 0.72 µM | 1.17 ± 0.09 µM |  |  |  |  |  |  |  |  | 
O=C1OCCC/C=C\CC/C=C\CCCOC(=O)c2ccccc2OCc2ccccc2COc2ccccc21 [6a, (10Z,14Z)-7,8,9,12,13,16,17,18,26,31-decahydro-5H,20H-tribenzo[c,g,k][1,5,10,14]tetraoxacyclohexacosine-5,20-dione] |  | 0.43 ± 0.03 µM | 1.94 ± 0.17 µM | 0.39 ± 0.03 µM | 0.61 ± 0.05 µM | 4.71 ± 0.42 µM | 0.49 ± 0.04 µM |  |  |  |  |  |  |  |  | 
O=C1OCCCC/C=C\CC/C=C\CCCCOC(=O)c2ccccc2OCc2ccc(cc2)COc2ccccc21 [7c, (14Z,18Z)-2,6,9,24-tetraoxa-1,7(1,2),4(1,4)-tribenzenacyclopentacosaphane-14,18-diene-8,25-dione] |  | 0.89 ± 0.09 µM | 3.47 ± 0.31 µM | 0.35 ± 0.03 µM | 0.59 ± 0.04 µM | 6.55 ± 0.61 µM | 0.39 ± 0.03 µM |  |  |  |  |  |  |  |  | 
